Source: patent US11969465B2, “Toxoplasma gondii vaccines and their use” (Alpha-O Peptides AG, priority 2016, dated 2024)
Read-outs that look alike come from different tables or passages of the source.

Experiments:
[1] = system: PBMC from T. gondii-seropositive HLA-A03 individuals; test: IFN-γ ELISpot assay with human PBMC; type: cell-based; details: for IFN-γ-secreting spot formation: PBMC from Toxoplasma seropositive HLA-A03 individuals, compared to an irrelevant HLA-A*1101-restricted peptide
Procedure: To determine which of these peptides would be recognized in the context of Toxoplasma infection, peripheral blood mononuclear cells (PBMC) from T. gondii-seropositive HLA-A03 individuals were tested for response to these peptides in pools or individually by using an IFN-γ ELISpot assay. Candidate peptides were considered immunogenic if they induced IFN-γ-secreting spot formation that was significant compared to an irrelevant HLA-A*1101-restricted peptide.
The epitopes were linked together with N/K alanines or GPGPG (SEQ ID NO: 23) as linker, named as LO and AZ, respectively (FIG. 3A-B). […] Immunogenicity of the two proteins compared to the pool of the 5 individual A11-restricted CD8^+ T cell epitope peptides was tested in vitro.
PBMC were obtained from individuals seropositive to T. gondii, and their HLA haplotype was determined.

TLR5 = biological target: T1, TLR5 (Homo sapiens, UniProt O60602); type: cell-based; details: for TLR5 activity (SEAP expression): 0.01-1000 ng/ml, 24 hours
T1 construct: expressed in transfected cells; host or cells: HEK 293 (stably co-transfected with TLR5 and NF-kB-driven SEAP reporter)
T1 sequence (O60602 21-858): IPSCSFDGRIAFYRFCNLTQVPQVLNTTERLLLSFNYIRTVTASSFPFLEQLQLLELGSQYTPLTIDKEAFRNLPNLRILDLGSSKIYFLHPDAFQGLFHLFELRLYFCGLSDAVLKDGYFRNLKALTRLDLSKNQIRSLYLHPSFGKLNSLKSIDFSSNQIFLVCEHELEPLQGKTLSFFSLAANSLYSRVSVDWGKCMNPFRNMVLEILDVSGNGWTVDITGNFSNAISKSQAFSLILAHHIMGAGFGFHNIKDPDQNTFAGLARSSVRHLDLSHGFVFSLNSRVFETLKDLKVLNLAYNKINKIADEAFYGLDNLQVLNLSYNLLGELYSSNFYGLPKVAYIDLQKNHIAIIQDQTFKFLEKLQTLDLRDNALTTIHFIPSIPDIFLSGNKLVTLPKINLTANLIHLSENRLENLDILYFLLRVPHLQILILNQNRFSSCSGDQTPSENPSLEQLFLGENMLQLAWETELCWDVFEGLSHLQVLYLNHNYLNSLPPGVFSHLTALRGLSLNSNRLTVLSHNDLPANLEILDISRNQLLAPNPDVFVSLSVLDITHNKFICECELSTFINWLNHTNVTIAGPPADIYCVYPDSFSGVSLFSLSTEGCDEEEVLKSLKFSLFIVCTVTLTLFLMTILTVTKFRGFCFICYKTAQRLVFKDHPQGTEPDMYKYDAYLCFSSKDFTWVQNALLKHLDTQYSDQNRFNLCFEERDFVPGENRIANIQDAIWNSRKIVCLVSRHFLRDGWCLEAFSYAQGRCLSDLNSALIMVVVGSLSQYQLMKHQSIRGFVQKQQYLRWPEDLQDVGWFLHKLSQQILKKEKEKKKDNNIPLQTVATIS

[2] = Immune response to Tox-All in HLA transgenic mice; design: species or system HLA A2 and HLA A11 mice; details: mouse, in vivo
Description: The schematic diagrams of SAPN A11 (SEQ ID NO:27) in FIG. 17A 12e is similar to the schematic diagram of the more complex SAPN Tox-All (FIG. 17B). (FIG. 12f). […] Tox-All contains CD8 T cell eliciting epitopes by binding to HLA All, A2, and B7, PADRE a universal CD4 T cell eliciting epitope, protein domains that can elicit antibody (data not shown). Tox-All has the same scaffold flagellin that is shown for SAPN A11. […] Additional CD8 peptides that bind to other HLA molecules to broaden population coverage and CD4 peptides can be added in this complex SAPN. Additional proteins that elicit B cells can also be included in the SAPN. This allows us to tailor an immune response for each component of the immune system we wish to stimulate. The methods and approaches are those described for the A11 SAPN.

In the case of STFWPCLLR [SAG2C13-21], the IFN-γ-secreting spot formation [1] is reported as “stimulated significant response”.

With AVVSLLRLLK [GRA589-98] the IFN-γ-secreting spot formation [1] was “stimulated significant response”.

For “Concanavalin A [Con A, reference compound]”, the “IFN-γ ELISpot response, seropositive versus seronegative donors” value ([1]; PBMC of 3 seropositive and 3 seronegative HLA-A03 individuals) was “response of PBMC from both seronegative and seropositive donors”.

For SSAYVFSVK [SRS52A250-258], the IFN-γ-secreting spot formation [1] was “stimulated significant response”.

B1: CD8-SAPN: self-assembling protein nanoparticle with five CD8+ epitopes and PADRE inserted into flagellin (protein)
chain: MGDKHHHHHHHHHHKDGSDKGSWEEWNARWDEWENDWNDWREDWQAWRDDWARWRATWMGGRLLSRLERLERRNEELRRLLQLIRHENRMVLQFVRALSMQNAELERRLEELARGMAQVINTNSLSLLTQNNLNRSQSALGTAIERLSSGLRINSARDDAAGQAIANRFTANIRGLTQASRNANDGISIAQTTEGALNEINNNLQRVRELAVQSANSTNSQSDLDSIQAEITQRLNEIDRVSGQTQFNGVRVLAQDNTLTIQVGANDGETIDIDLRQINSQTLGLDQLNVQQEYESDDAVVSLLRLLKNAMLTAFFLRNAAAKSFKDILPKKAAASSAYVFSVKKAAAKFVAAWTLKAAAKSTFWPCLLRDSDSDTENPLQRIDAALAQVDALRSDLGAVQNRFNSAITNLGNTVNNLSEARSRIEDSDYATEVSNMSRAQILQQAGTSVLAQANQVPQNVLSLLR
modifications: (1)..(14) optionally absent
With B1 the “TLR5 activity (SEAP expression)” value (TLR5) was “significantly enhanced” and the “TLR5 activity (SEAP expression)” value (TLR5; listed as SAPN) was “good stimulation”.

B2: Tox-All: SAPN with HLA A11, A2 and B7 CD8 epitopes, PADRE, antibody-eliciting domains and flagellin (protein)
chain: MGDDHHHHHHHHHHWFMGVLVNSLQDITMGSLFFVQDFMIVSISLVQDGLAAAVVAVQDLPQFATAATRDSPASGRYIQQMLDQRCQEIAAELCQSGLRKMCVPSSRIVARNAVGITHQNTLQWRCFDTASLLESNQENNGVNCVDDCGHTIPCPGGVHRQNSNHATRHEILSKLVEEGVQRFCSPYQASANKYCNDKFPGTIARRSKGFGNNVEVAWRCYEKASLLYSVYAECASNCGTTWYCPGGRRGTSTELDKRHYTEEEGIRQAIGSVDSPCSEVEVCLPKDENPPLCLDESGQISRGSWEEWNARWDEWENDWNDWREDWQAWRDDWARWRATWMGGRLLSRLERLERRNEELRRLLQLIRHENRMVLQFVRALSMQNAELERRLEELARGMAQVINTNSLSLLTQNNLNRSQSALGTAIERLSSGLRINSARDDAAGQAIANRFTANIRGLTQASRNANDGISIAQTTEGALNEINNNLQRVRELAVQSANSTNSQSDLDSIQAEITQRLNEIDRVSGQTQFNGVRVLAQDNTLTIQVGANDGETIDIDLRQINSQTLGLDQLNVQQEYESDDAVVSLLRLLKNAMLTAFFLRNAAAKSFKDILPKKAAASSAYVFSVKKAAAKFVAAWTLKAAAKSTFWPCLLRDSDSDTENPLQRIDAALAQVDALRSDLGAVQNRFNSAITNLGNTVNNLSEARSRIEDSDYATEVSNMSRAQILQQAGTSVLAQANQVPQNVLSLLR
modifications: (1)..(14) optionally absent
With B2 the immune response [2] was “stimulates an immune response” and the TLR5 stimulation (TLR5; data not shown) was “stimulates TLR5”.
